#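 Where inhibition never reached the appropriate level, the endpoint shown equals the highest concentration tested. Otherwise, values were interpolated linearly from a five-concentration, 48-hour dose response in 96-well plates. GI50 marks 50% less growth. TGI marks complete inhibition of growth.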
# Experiments:
# Test in all cases: NCI anticancer screen, dose series, 48 h
# [1] = system: 786-0 renal
# [2] = system: A498 renal
# [3] = system: A549 NSCLC
# [4] = system: ACHN renal
# [5] = system: BT-549 breast
# [6] = system: CAKI-1 renal
# [7] = system: CCRF-CEM leukemia
# [8] = system: COLO 205 colon
# [9] = system: DU-145 prostate
# [10] = system: HCC-2998 colon
# [11] = system: HCT-116 colon
# [12] = system: HCT-15 colon
# [13] = system: HL-60(TB) leukemia
# [14] = system: HOP-62 NSCLC
# [15] = system: HOP-92 NSCLC
# [16] = system: HS 578T breast
# [17] = system: HT29 colon
# [18] = system: IGROV1 ovarian
# [19] = system: K-562 leukemia
# [20] = system: KM12 colon
# [21] = system: LOX IMVI melanoma
# [22] = system: M14 melanoma
# [23] = system: MALME-3M melanoma
# [24] = system: MCF7 breast
# [25] = system: MDA-MB-231 breast
# [26] = system: MDA-MB-435
# [27] = system: MOLT-4 leukemia
# [28] = system: NCI-H226 lung
# [29] = system: NCI-H23 lung
# [30] = system: NCI-H460 lung
# [31] = system: NCI-H522 lung
# [32] = system: NCI/ADR-RES ovarian
# [33] = system: OVCAR-3 ovarian
# [34] = system: OVCAR-4 ovarian
# [35] = system: OVCAR-5 ovarian
# [36] = system: OVCAR-8 ovarian
# [37] = system: PC-3 prostate
# [38] = system: RPMI-8226 leukemia
# [39] = system: RXF 393 renal
# [40] = system: SF-268 CNS
# [41] = system: SF-295 CNS
# [42] = system: SF-539 CNS
# [43] = system: SK-MEL-2 melanoma
# [44] = system: SK-MEL-28 melanoma
# [45] = system: SK-MEL-5 melanoma
# [46] = system: SK-OV-3 ovarian
# [47] = system: SN12C renal
# [48] = system: SNB-19 CNS
# [49] = system: SNB-75 CNS
# [50] = system: SR leukemia
# [51] = system: SW-620 colon
# [52] = system: T-47D breast
# [53] = system: TK-10 renal
# [54] = system: U251 CNS
# [55] = system: UACC-257 melanoma
# [56] = system: UACC-62 melanoma
# [57] = system: UO-31 renal
smiles,measurement,setting,value
Nc1c(C(=O)c2cccc(-c3cccnc3)c2)cnn1-c1ccc(F)cc1,GI50,[1],> 25 µM
same,TGI,[1],> 25 µM
same,GI50,[2],> 25 µM
same,TGI,[2],> 25 µM
same,GI50,[3],> 25 µM
same,TGI,[3],> 25 µM
same,GI50,[4],> 25 µM
same,TGI,[4],> 25 µM
same,GI50,[5],> 13.2 µM
same,TGI,[5],> 25 µM
same,GI50,[6],> 25 µM
same,TGI,[6],> 25 µM
same,GI50,[7],> 25 µM
same,TGI,[7],> 25 µM
same,GI50,[8],> 25 µM
same,TGI,[8],> 25 µM
same,GI50,[9],> 25 µM
same,TGI,[9],> 25 µM
same,GI50,[10],> 25 µM
same,TGI,[10],> 25 µM
same,GI50,[11],> 25 µM
same,TGI,[11],> 25 µM
same,GI50,[12],> 25 µM
same,TGI,[12],> 25 µM
same,GI50,[13],> 25 µM
same,TGI,[13],> 25 µM
same,GI50,[14],> 17.3 µM
same,TGI,[14],> 25 µM
same,GI50,[15],> 8.11 µM
same,TGI,[15],> 25 µM
same,GI50,[16],> 25 µM
same,TGI,[16],> 25 µM
same,GI50,[17],> 25 µM
same,TGI,[17],> 25 µM
same,GI50,[18],> 25 µM
same,TGI,[18],> 25 µM
same,GI50,[19],> 25 µM
same,TGI,[19],> 25 µM
same,GI50,[20],> 25 µM
same,TGI,[20],> 25 µM
same,GI50,[21],> 25 µM
same,TGI,[21],> 25 µM
same,GI50,[22],> 25 µM
same,TGI,[22],> 25 µM
same,GI50,[23],> 25 µM
same,TGI,[23],> 25 µM
same,GI50,[24],> 25 µM
same,TGI,[24],> 25 µM
same,GI50,[25],> 25 µM
same,TGI,[25],> 25 µM
same,GI50,[26],> 25 µM
same,TGI,[26],> 25 µM
same,GI50,[27],> 25 µM
same,TGI,[27],> 25 µM
same,GI50,[28],> 16.1 µM
same,TGI,[28],> 25 µM
same,GI50,[29],> 25 µM
same,TGI,[29],> 25 µM
same,GI50,[30],> 25 µM
same,TGI,[30],> 25 µM
same,GI50,[31],6.12 µM
same,TGI,[31],24.7 µM
same,GI50,[32],> 20.5 µM
same,TGI,[32],> 25 µM
same,GI50,[33],> 25 µM
same,TGI,[33],> 25 µM
same,GI50,[34],> 16.3 µM
same,TGI,[34],> 25 µM
same,GI50,[35],> 25 µM
same,TGI,[35],> 25 µM
same,GI50,[36],> 13.9 µM
same,TGI,[36],> 25 µM
same,GI50,[37],> 25 µM
same,TGI,[37],> 25 µM
same,GI50,[38],> 25 µM
same,TGI,[38],> 25 µM
same,GI50,[39],> 18.3 µM
same,TGI,[39],> 25 µM
same,GI50,[40],> 20.9 µM
same,TGI,[40],> 25 µM
same,GI50,[41],> 25 µM
same,TGI,[41],> 25 µM
same,GI50,[42],> 25 µM
same,TGI,[42],> 25 µM
same,GI50,[43],> 25 µM
same,TGI,[43],> 25 µM
same,GI50,[44],> 25 µM
same,TGI,[44],> 25 µM
same,GI50,[45],> 25 µM
same,TGI,[45],> 25 µM
same,GI50,[46],> 25 µM
same,TGI,[46],> 25 µM
same,GI50,[47],> 25 µM
same,TGI,[47],> 25 µM
same,GI50,[48],> 25 µM
same,TGI,[48],> 25 µM
same,GI50,[49],> 12.6 µM
same,TGI,[49],> 25 µM
same,GI50,[50],> 25 µM
same,TGI,[50],> 25 µM
same,GI50,[51],> 25 µM
same,TGI,[51],> 25 µM
same,GI50,[52],> 25 µM
same,TGI,[52],> 25 µM
same,GI50,[53],> 25 µM
same,TGI,[53],> 25 µM
same,GI50,[54],> 25 µM
same,TGI,[54],> 25 µM
same,GI50,[55],> 25 µM
same,TGI,[55],> 25 µM
same,GI50,[56],> 25 µM
same,TGI,[56],> 25 µM
same,GI50,[57],> 25 µM
same,TGI,[57],> 25 µM
